Where two headings read alike, the source gives them in different places.
Assays:
HeLa cells [1] = assay: MTT antiproliferative / cell viability assay; format: cell-based; settings: for IC50: mean of three ± SD; for in vitro activity compared to its ligand: 72 hours
Protocol: We investigated the antiproliferative activities of compounds 4‒8 against HeLa cells using the standard 3‐(4,5‐dimethylthiazol‐2‐yl)‐2,5‐diphenyltetrazolium bromide (MTT) assay (Table 2). […]
8. Cell viability studies […]
media. All biological experiments were thus conducted using 5 mM stock solutions in DMSO that were diluted with culture medium to produce a final concentration of 0.5% DMSO for all experiments unless specified otherwise.
Cell viability experiments
HeLa cells were harvested, pelleted by centrifugation, and resuspended in cell culture medium. The MTT assays were carried out in 96 well plates at a starting density of 1500 cells per well in 100 µL of culture medium. The next day, a dilution series of 7 different concentrations was prepared for each evaluated compound. After 24 h of incubation, the cells were treated with 100 µL of culture medium containing the prepared conc entrations of the respective compounds to reach a final volume of 200 µL in each well. As a negative control, one series of cells was treated with the vehicle only (0.5% DMSO). […]
MTT dye (2.5 mg/mL). After a further incubation of 2 h, the medium was aspired off, and 200 µL DMSO was added to solubilize the precipitated formazan dye. The formazan absorption was measured on a BMG LABTECH CLARIOstar Plus plate reader at 550 nm, using a reference wavelength of 620 nm. Using the mean absorbance of each set of identically treated wells, a dose-response curve was produced and normalized to the wells containing untreated cells to allow for plate-to-plate comparison. The dose-response curves were then subjected to non-linear regression analysis performed in Microsoft Excel to determine IC50 values. Data is shown as the mean of three replicate experiments, and error bars represent the standard

HeLa cells [2] = assay: Cellular uptake assay, metal content by ICP-MS; format: cell-based; settings: 10 µM, 24 h, whole cell accumulation by ICP-MS
Protocol: Subsequently, we investigated the uptake of the conjugates 5 and 7 (at 10 µM) by incubating HeLa cells with the respective compounds for 24 hours and analyzing the final metal concentration inside the cells using inductively coupled plasma mass spectrometry (ICP‐MS). […]
HeLa cells were harvested and seeded in 100 mm × 21 mm cell culture dishes at a density of 200,000 cells per dish in 10 mL of growth medium. After 96 hours of incubation, when the cells had reached 90% confluency, the growth medium was aspirated and replaced with fresh medium containing 10 μM of a compound belonging to sets 5 or 7, respectively. The cells were incubated with the compound for 24 h, after which the medium was aspirated, and the cells were washed three times with 10 mL of PBS buffer. Subsequently, the washed cells were […]
trypsinized for 3 min, and the trypsin reaction was halted by the addition of 3 mL growth media.
Cells were suspended in the mixture, and the total cell count was determined using a Bio -Rad TC20 cell counter. The cell suspension was centrifuged at 5000 rpm for 5 minutes, and the supernatant was removed. The cells were then digested using 2 mL of aqua regia (3:1 v/v, 37% HCl and 70% HNO3, trace metal basis quality (Aldrich, purity ≥99.999%)) and sonicated at 60 °C for 16 h. The dissolved samples were then diluted with 13 mL of HPLC-grade water to reach a final volume of 15 mL. The total metal content of the samples was then determined via ICP-MS analysis (Thermo Scientific iCAP RQ, ASX-560) in Ar plasma in KED mode with He as collision gas. Reference to standards was made, and calibration curves were developed using commercial calibration standards (TraceCert®, Merck).
Fluorophore Compound Metal content
Table S3: Whole cell accumulation of compound sets 5 and 7 analyzed using ICP-MS and expressed in terms of total metal content. […]

[3] = Stability in cell culture medium by UV/Vis spectroscopy; format: physicochemical; settings: 50 µM, DMEM with 10% fetal bovine serum, over 72 hours
Protocol: Likewise, the stability of these complexes was shown via UV/Vis spectrophotometry in cell culture medium over 72 hours.^[ [22] ^] The stability of the newly synthesized compounds was investigated similarly. […] However, the absorption profiles remained distinctly different from those of the corresponding free ligands, which was taken as evidence that the Pd(II) metal center remained chelated by the ligand.
(§1) Stability in Cell Culture Medium and Water
(§2) 5 mM stocks of the respective compounds in DMSO were diluted to produce a final concentration of 50 µM in water or Dulbecco's Modified Eagle's Medium (DMEM) containing 10% fetal bovine serum and 1% penicillin + streptomycin , respectively. The stability of the compounds was monitored via UV/Vis spectroscopy by recording the corresponding absorption profiles of the 50 µM solutions and comparing any changes to the profiles over […]

[4] = Lipophilicity, n-octanol/PBS distribution (logD7.2); format: physicochemical; settings: n-octanol/PBS distribution at pH 7.2; mean of three measurements ± SD
Text: Having synthesized and assessed the stabilities of the complexes, we moved on to measure their lipophilicities at pH = 7.2 using the n‐octanol/PBS partition coefficient (Table 1).^[ [33], [34] ^] While the complexes were all highly lipophilic, the BODIPY‐conjugated complexes were more lipophilic than their coumarin analogs. In both sets of conjugates, the logD values followed the trend Pd(II) > Pt(II) > Au(III), with the monocationic Au(III) complexes being the least lipophilic.
7. Lipophilicity (logD7.2)
500 mL aliquots of purified octanol and PBS were thoroughly mixed in a 2 L separatory funnel and left overnight to saturate the two phases. For compound sets 5 and 7, 20 μM standard solutions were prepared in PBS-saturated octanol, respectively. 5 mL standard solutions containing the compound in question were then pipetted into 15 mL centrifuge tubes, and a 5 mL aliquot of the octanol-saturated PBS was added. The resulting samples were shaken for 10 min and allowed to rest overnight for 18 hours. The samples were then centrifuged for 30 min (3000 g, 20 °C), and aliquots of the octanol phase were analyzed via UV -Vis spectroscopy.
Experiments were conducted in triplicate. The concentrations of the compounds in the octanol phase were then quantified with respect to their λmax. […]
where A0 = absorbance of 20 μM compound in PBS-saturated octanol

HeLa cells [5] = assay: Live-cell confocal microscopy, colocalization with organelle trackers; format: cell-based; settings: 10 µM, 24 hours, ± standard deviation
Protocol: The subcellular behavior of the compounds was then assessed using a confocal microscope following incubation with HeLa cells (10 µM) for 6 hours and 24 hours, respectively (Figures S56, S57, and 5, 6). Moreover, we performed colocalization experiments with appropriate commercial organelle tracking dyes. As controls, we used the methyl and ethyl esters of 1 and 2, 1‐OMe and 2‐OEt, respectively. […] Moreover, the Pearson Correlation Coefficients (PCC) between 6 and the commercial lysosome tracker (LysoTracker deep red) channel improved over time from 0.63 to 0.81. Additionally, the distribution was distinct from 2‐OEt, corroborating that the Dp44mT scaffold directed the localization of the conjugates. Therefore, attaching BODIPY had no discernible effect on the lysosomal accumulation of Dp44mT.
Figure S55: Excitation (Exc) and emission (Em) spectra of BODIPY conjugates 6 and 7 at 10 µM in water. For (A) 6 and (B) 7a compounds, λex = 502 nm and λem = 519 nm; Slitwidth: […]; Sensitivity: low and medium, respectively. For (C) 7b and (D) 7c, λex = 519 nm and λem = 519 nm; Slitwidth: […]; Sensitivity: medium […]
collected at the appropriate emission wavelengths. […] The corresponding Pearson's Correlation Coefficients (PCCs) were calculated using Fiji (version 1.54f).[7] […]

HeLa cells [6] = tested on: HeLa cells; parameters: method as in PMID 40488845; settings: 24 hours incubation, highest tested concentration 15 µM; cited from earlier work
[7] = parameters: method as in PMID 40488845; settings: 1H NMR, over 24 hours; cited from earlier work
[8] = Stability in water by UV/Vis spectroscopy; format: physicochemical; settings: 50 µM, after 72 hours
Protocol: In the case of the Au(III) complexes, both the BODIPY conjugated complex 7a and the parent Dp44mT complex 8a ostensibly decomposed in cell culture medium, as their absorption profiles in media lacked the characteristic charge transfer band at λmax ∼440 nm observed in water. […] However, a slight shift in the λmax coupled with a decrease in absorbance was observed (Figure 4D).
as §1, §2

[9] = parameters: method as in PMID 40488845; settings: UV/Vis, over 72 hours; cited from earlier work
[10] = 24 hours incubation, read-out: IC50 24 hours
[11] = 72 hours incubation, read-out: IC50 72 hours
[12] = Homo sapiens, 24 hours incubation, read-out: IC50 24 hours
[13] = Homo sapiens, 72 hours incubation, read-out: IC50 72 hours

IC50 (HeLa cells [1]; [10])	IC50 (HeLa cells [1]; [11])	Metal content (HeLa cells [2])	stability in cell culture medium [3]	logD 7.2 [4]	Pearson Correlation Coefficient (PCC) with ER Tracker (HeLa cells [5])	IC50 (HeLa cells [1]; [12])	IC50 (HeLa cells [1]; [13])	stability in water [8]	SMILES	effect on cell viability after 24 hours (HeLa cells [6])	stability in DMSO-d6 [7]	in vitro activity compared to its ligand (HeLa cells [1])	stability in cell culture medium [9]
> 15 µM	4.3 ± 0.3 µM	0.013 ± 0.002 pg/cell	remained stable	1.80 ± 0.04	0.51 ± 0.01				CC1=CC(C)=[N+]2C1=Cc1ccc(CCC(=O)NCCc3cccc(C4=[N+]5N=C(N(C)C)[S][Pt-2]5([Cl])[n+]5ccccc54)n3)n1[B-]2(F)F (stereo not shown) [Compound 7b]				
> 15 µM	0.009 ± 0.0005 µM		decomposed					only mild degradation	CN(C)C1=N[N+]2=C(c3ccccn3)c3cccc[n+]3[Au-]2([Cl])[S]1.[Cl][Au-][Cl] (stereo not shown) [Compound 8a]			comparable to their respective ligands	
> 15 µM	3.1 ± 0.3 µM	0.032 ± 0.016 pg/cell	similarly decomposed	0.99 ± 0.02					CN(C)C1=N[N+]2=C(c3cccc(CCNC(=O)CCCNC(=O)c4cc5cc6c7c(c5oc4=O)CCCN7CCC6)n3)c3cccc[n+]3[Au-]2([Cl])[S]1.F[P-](F)(F)(F)(F)F (stereo not shown) [Compound 5a]			fourfold lower activity	
> 15 µM	58.2 ± 4.3 µM	0.016 ± 0.005 pg/cell		1.47 ± 0.03					CN(C)C1=N[N+]2=C(c3cccc(CCNC(=O)CCCNC(=O)c4cc5cc6c7c(c5oc4=O)CCCN7CCC6)n3)c3cccc[n+]3[Pt-2]2([Cl])[S]1 (stereo not shown) [Compound 5b]	did not affect cell viability	stable		stable
> 15 µM	0.6 ± 0.1 µM	0.035 ± 0.007 pg/cell	decomposed	1.53 ± 0.07				only mild degradation	CC1=CC(C)=[N+]2C1=Cc1ccc(CCC(=O)NCCc3cccc(C4=[N+]5N=C(N(C)C)[S][Au-]5([Cl])[n+]5ccccc54)n3)n1[B-]2(F)F.F[P-](F)(F)(F)(F)F (stereo not shown) [Compound 7a]			comparable to their respective ligands	

The next lines start with the compound.

SMILES	IC50 (HeLa cells [1]; [10])	IC50 (HeLa cells [1]; [11])	Metal content (HeLa cells [2])	stability in cell culture medium [3]	logD 7.2 [4]	Pearson Correlation Coefficient (PCC) with ER Tracker (HeLa cells [5])	IC50 (HeLa cells [1]; [12])	IC50 (HeLa cells [1]; [13])	stability in water [8]	effect on cell viability after 24 hours (HeLa cells [6])	stability in DMSO-d6 [7]	in vitro activity compared to its ligand (HeLa cells [1])	stability in cell culture medium [9]
CN(C)C(=S)NN=C(c1ccccn1)c1cccc(CCNC(=O)CCCNC(=O)c2cc3cc4c5c(c3oc2=O)CCCN5CCC4)n1 [Compound 4]							> 15 µM	0.8 ± 0.1 µM		did not affect cell viability	stable		
CN(C)C(=S)NN=C(c1ccccn1)c1ccccn1 [Dp44mT, di‐2‐pyridylketone‐4,4‐dimethyl‐3‐thiosemicarbazone, reference compound]							> 15 µM	0.009 ± 0.0003 µM		did not affect cell viability			
CC1=CC(C)=[N+]2C1=Cc1ccc(CCC(=O)NCCc3cccc(C(=NNC(=S)N(C)C)c4ccccn4)n3)n1[B-]2(F)F [Compound 6]							> 15 µM	0.8 ± 0.1 µM					
